PMC8400257, “2-Phenoxy-3-Trichloromethylquinoxalines Are Antiplasmodial Derivatives with Activity against the Apicoplast of Plasmodium falciparum” (Pharmaceuticals, 2021)
Where two headings read alike, the source gives them in different places.

Tests used:
[1] = tested on: K1 chloroquine and pyrimethamine-resistant P. falciparum strain; experiment: In vitro antiplasmodial evaluation (SYBR Green I); assay type: cell-based, Plasmodium falciparum; details: K1 strain, 72 h incubation, three independent experiments, read-out: EC50 PfK1 (µM) ± SD
Protocol: For all molecules, the selectivity index was calculated as following SI = CC50/EC50.
It was maintained in continuous culture, as described previously by Trager and Jensen. Cultures were maintained in fresh A+ human erythrocytes at 2.5% hematocrit in complete medium (RPMI 1640 with 25 mM HEPES, 25 mM NaHCO3, 10% of A+ human serum) at 37 °C under reduced O2 atmosphere (gas mixture 10% O2, 5% CO2, and 85% N2). Parasitemia was maintained daily between 1 and 3%. The P. falciparum drug susceptibility test was carried out by comparing quantities of DNA in treated and control cultures of parasite in human erythrocytes according to an SYBR Green I fluorescence-based method using a 96-well fluorescence plate reader. Compounds, previously dissolved in DMSO (final concentration less than 0.5% v/v), were incubated in a total assay volume of 200 μL (RPMI, 2% hematocrit and 0.4% parasitemia) for 72 h in a humidified atmosphere (10% O2 and 5% CO2) at 37 °C, in 96-well flat bottom plates. Duplicate assays were performed for each sample. After incubation, plates were frozen at […] for 24 h. Then, the frozen plates were thawed for 1 h at 37 °C. Fifteen µL of each sample were transferred to 96-well flat bottom non-sterile black plates (Greiner Bio-one, Kremsmünster, Austria), already containing 15 µL of the SYBR Green I lysis buffer (2X SYBR Green I, 20 mM Tris base pH 7.5, 20 mM EDTA, 0.008% w/v saponin, 0.08% w/v Triton X-100). […] Plates were incubated for 15 min at 37 °C and then read on a TECAN Infinite F-200 spectrophotometer with excitation and emission wavelengths at 485 and 535 nm, respectively.

P. falciparum apicoplast = experiment: Immunofluorescence assay of apicoplast biogenesis on treated blood-stage parasites; assay type: cell-based, Plasmodium falciparum; details: 48 h, 0.2 µM
Protocol: (§1) To determine the impact of (3i) on apicoplast biogenesis, parasites were treated for 48 h with 0.2 µM of (3i) or 0.2 µM of (2i) (a control of (3i) for which the active CCl3 was replaced by a methyl CH3 group) and compared to untreated parasites by immunofluorescence assay. […] In order to determine if the apicoplast is the main target of (3i), we performed a growth assay over three life cycles to assess a potential delayed death effect, one of the major signature for compounds affecting apicoplast. […] The second interpretation could be that, unlike chloramphenicol or doxycycline, which cause a delayed death phenotype on Plasmodium, (3i) could act like fosmidomycin or actinonin and cause a rapid death phenotype.
Plasmodium falciparum blood stage parasites were maintained at 2% hematocrit in 1640 RPMI-HEPES, supplemented with 5% AlbuMAX II (GIBCO) and 0.25% gentamycin. Parasites were grown sealed Perspex chambers gassed with beta mix gas (1% O2, 5% CO2 and 94% N2) at 37 °C and maintained on 48-h cycles. Cultures were tightly synchronized at ring stage using sorbitol treatment (5% v/v) as previously described.
Prior to the treatment, parasites were synchronized using 5% sorbitol. After 48 h treatment ([…] or DMSO) parasites were fixed using 4% paraformaldehyde (PFA) and 0.0075% glutaraldehyde for 30 min at room temperature. […]

[2] = tested on: Plasmodium falciparum blood stage parasites; experiment: Growth assay over three life cycles (delayed death); assay type: cell-based; details: 0.2 µM; 48, 96, 144 h
Protocol: as §1
To observe a potential effect of delayed death of the molecule on the parasite, Plasmodium was maintained on three life cycles (48 h). […] Fluorescence from each well was measured with TECAN infinite M200 plate reader (excitation: 485 nm, emission: 538 nm and integration time: 1000 μs). […] A graph was obtained by performing the ration of the treated culture fluorescence intensity on the untreated culture fluorescence intensity (n = 3).

[3] = tested on: P. falciparum (NF135 strain) hepatic exoerythrocytic forms; experiment: Liver stage development in infected primary human hepatocytes; assay type: cell-based, Plasmodium falciparum; details: 3i 0.9-30 µM, ATQ 25 nM; 6 or 12 days post-infection
Protocol: The effect of (3i) on the hepatic stage of P. falciparum was next studied in order to know if (3i) was active against another stage of P. falciparum cycle. Cryopreserved primary human hepatocytes were infected with 30,000 freshly extracted P. falciparum sporozoites and simultaneously treated with a dose range (0.9–30 µM) of (3i). Atovaquone (ATQ) was used as a positive parasite-killing control at 25 nM.
P. falciparum (NF135 strain) sporozoites were isolated by dissection of the salivary glands of infected A. stephensi 14–21 days after an infective blood meal (Department of medical microbiology, University Medical Centre, St Radboud, Nijmegen Netherland). All infected salivary glands were removed by hand dissection, crushed in a potter for sporozoites isolation, and filtrated through a 40 μm filter to remove mosquito debris (Cell Strainer, BD BioSciences, Franklin Lakes, NJ, USA). The sporozoites were counted using a disposable Glasstic microscope slide (KOVA, Garden Grove, CA, USA).
One day before hepatocyte thawing, 96-well plates were coated by a Corning®® collagen solution (50 µg/mL rat tail type I collagen in 0.02N acid acetic) over night at room temperature. The next day, the wells were washed twice by PBS solution. Cryopreserved primary human hepatocytes (LONZA, Basel, Swiss) were seeded in 96-well plates with a pre-determined seeding dose that gave a single dense layer of attached hepatocytes. Four days post-seeding, each plate well was infected with 30,000 freshly extracted Plasmodium falciparum sporozoites. […]
Hepatocyte cultures were fixed with 4% paraformaldehyde solution (PFA, Invitrogen) for 10 min. […] Images were analyzed and prepared with ImageJ software. Apicoplast morphology was observed and quantified by eye under a confocal microscope.
Upon immunostaining of parasites, the study plates were scanned using a CellInsight high-content screening platform equipped with the Studio HCS software (Thermo Fisher Scientific, Waltham, MA, USA). […] The number of host hepatocyte nuclei per well was counted by the system as a measure of toxicity of 3i towards the liver cells. […]

[4] = tested on: Pf3D7 (3D7 chloroquine-sensitive strain); details: Figure 2; cited from earlier work
HepG2 = details: Figure 2; cited from earlier work

Cc1nc2ccccc2nc1Oc1ccc([N+](=O)[O-])cc1 [2i, 2-Methyl-3-(4-nitrophenoxy)quinoxaline]
EC50 [1]: > 16 µM
EC50 ([1]; Plasmodium falciparum, K1, 72 h): > 25 µM
Effect on apicoplast biogenesis (immunofluorescence) (P. falciparum apicoplast): absence of effect
Parasite growth over three life cycles (ratio treated/untreated) [2]: absence of effect

O=C1C(O)=C([C@H]2CC[C@H](c3ccc(Cl)cc3)CC2)C(=O)c2ccccc21 [ATQ, Atovaquone, reference compound]
Effect on exoerythrocytic forms (EEF or schizont) size and numbers [3]: completely clear all parasites from the culture

Brc1ccc(Nc2nc3ccccc3nc2Nc2ccc(Br)cc2)cc1 [MMV007224]
EC50 [4]: 1.06 µM
CC50 (HepG2): 5.1 µM
